# Results published in patent US11505558B1, “Antiviral heterocyclic compounds” (Enanta Pharmaceuticals, Inc., priority 2019, dated 2022).
# Tested on: genotype A, "Long" strain RSV
# Assay: RSV-A assay (CPE, ATPlite readout in Hep-2 cells)
# Type: cell-based
# Conditions: human respiratory syncytial virus, HEp-2, Hep-2 cells, genotype A "Long" strain RSV, MOI 0.1; read-out: Human RSV-A (“Long” strain) EC50
# Text: Hep-2 cells, (originally derived from tumors grown in irradiated-cortisonised weanling rats that had been injected with epidermoid carcinoma tissue from a person's larynx, but later found to be indistinguishable from HeLa cells by PCR DNA analysis), were used for the culturing of genotype A, “Long” strain RSV. Flasks were inoculated with RSV and viral stocks were collected once cytopathic effect (CPE) was greater than […]. Viral stocks in […] sucrose media were snap frozen using liquid nitrogen to increase viral stability. Viral stock titers were quantified by tissue culture infectious dose 50% (TCID50) using 8,000 cells per well and 3-fold viral dilutions across a 96-well plate, cultured for 4 days. Viral stock titers were also quantified by a plaque forming unit assay, as described elsewhere.
# Following extensive parameter testing, the final assay is run as follows: Hep-2 cells are seeded into the inner 60 wells of a 96-well plate at 8,000 cells per well in a volume of 50 μL using Growth Media (DMEM without phenol red, 1% L-Glut, 1% Penn/Strep, 1% nonessential amino acids, 10% heat-inactivated FBS). 2-fold serial dilutions of control and test compounds are added to the wells in duplicate in a total volume of 25 μL. Viral stock is then added to the wells at a multiplicity of infection (MOI) of 0.1 in a volume of 25 μL, bringing the total volume of each well to 100 μL. The MOI is calculated using the PFU/mL, or TCID50 if unavailable. Each 96-well plate has a control column of 6 wells with cells and virus but no compound (negative control, max CPE), a column with cells but no compound or virus (positive control, minimum CPE), and a column with no cells or virus or compound (background plate/reagent control). The control wells with cells but no virus are given an additional 25 μL of growth media containing an equal quantity of sucrose as those wells receiving the viral stock in order to keep consistent in media and volume conditions. The outer wells of the plate are filled with 125 μL of moat media (DMEM, 1% Penn/Strep) to act as a thermal and evaporative moat around the test wells. Following a 5-day incubation period, the plates are read using ATPlite (50 uL added per well), which quantifies the amount of ATP (a measure of cell health) present in each well. Assay plates are read using the Envision luminometer. […] EC50 ranges are as follows: A<0.2 μM; B>0.2 μM.
row,EC50,Compound
1,> 200 nM,"COc1cc(C(=O)NC[C@](O)(c2cc3c(c(-c4ccc(F)cc4)n2)OC[C@]3(C)COC(=O)NC2CC2)C(F)(F)F)ccc1OCCO (single isomer, unassigned) [Example 7]"
2,< 200 nM,COc1cc(C(=O)NC[C@](O)(c2cc3c(c(-c4ccc(F)cc4)n2)OC[C@]3(C)CNC2CC2)C(F)(F)F)ccc1OCCO [Example 3]
3,< 200 nM,COc1cc(C(=O)NCC(O)(c2cc3c(c(-c4ccc(F)cc4)n2)OC[C@]3(C)CN[C@@H](C)C2CC2)C(F)(F)F)ccc1OCCO (stereo partly drawn) [Example 4]
4,> 200 nM,COc1cc(C(=O)NC[C@](O)(c2cc3c(c(-c4ccc(F)cc4)n2)OC[C@]3(C)CNc2ccccc2)C(F)(F)F)ccc1OCCO [Example 5]
5,> 200 nM,COc1cc(C(=O)NC[C@](O)(c2cc3c(c(-c4ccc(F)cc4)n2)OC[C@]3(C)COC(=O)Nc2ccccc2)C(F)(F)F)ccc1OCCO [Example 6]
6,> 200 nM,COc1cc(C(=O)NC[C@](O)(c2cc3c(c(-c4ccc(F)cc4)n2)OC[C@]3(C)CNC(=O)c2ccccc2)C(F)(F)F)ccc1OCCO [Example 8]
7,< 200 nM,COc1cc(C(=O)NC[C@](O)(c2cc3c(c(-c4ccc(F)cc4)n2)OC[C@]3(C)CNC(=O)C2CC2)C(F)(F)F)ccc1OCCO [Example 9]
8,< 200 nM,COc1cc(C(=O)NC[C@](O)(c2cc3c(c(-c4ccc(F)cc4)n2)OC[C@]3(C)C(=O)NC2CC2)C(F)(F)F)ccc1OCCO [Example 10]
9,< 200 nM,COc1cc(C(=O)NC[C@](O)(c2cc3c(c(-c4ccc(F)cc4)n2)OC[C@]3(C)C(N)=O)C(F)(F)F)ccc1OCCO [Example 11]
10,> 200 nM,COc1cc(C(=O)NCC(O)(c2cc3c(c(-c4ccc(F)cc4)n2)OC[C@]3(C)C(=O)NS(=O)(=O)C2CC2)C(F)(F)F)ccc1OCCO (stereo partly drawn) [Example 12]
11,> 200 nM,COc1cc(C(=O)NCC(O)(c2cc3c(c(-c4ccc(F)cc4)n2)OC[C@]3(C)C(=O)O)C(F)(F)F)ccc1OCCO (stereo partly drawn) [Example 13]
12,< 200 nM,COc1cc(C(=O)NC[C@](O)(c2cc3c(c(-c4ccc(F)cc4)n2)OC[C@]3(C)CNC2CC2)C(F)(F)F)ccc1OC1CC1 [Example 17]
13,< 200 nM,COc1cc(C(=O)NC[C@](O)(c2cc3c(c(-c4ccc(F)cc4)n2)OC[C@]3(C)CNCC2CC2)C(F)(F)F)ccc1OC1CC1 [Example 18]
14,< 200 nM,COc1cc(C(=O)NC[C@](O)(c2cc3c(c(-c4ccc(F)cc4)n2)OC[C@]3(C)CN[C@@H](C)C2CC2)C(F)(F)F)ccc1OC1CC1 [Example 19]
15,< 200 nM,COc1cc(C(=O)NC[C@](O)(c2cc3c(c(-c4ccc(F)cc4)n2)OC[C@]3(C)CNC2CC2)C(F)(F)F)cc2cccnc12 [Example 23]
16,< 200 nM,COc1cc(C(=O)NCC(O)(c2cc3c(c(-c4ccc(F)cc4)n2)OC[C@]3(C)CN[C@@H](C)C2CC2)C(F)(F)F)cc2cccnc12 (stereo partly drawn) [Example 24]
17,< 200 nM,COc1cc(C(=O)NCC(O)(c2cc3c(c(-c4ccc(F)cc4)n2)OC[C@]3(C)CNCC2CC2)C(F)(F)F)cc2cccnc12 (stereo partly drawn) [Example 25]
18,< 200 nM,COc1cc(C(=O)NC[C@](O)(c2cc3c(c(-c4ccc(F)cc4)n2)OC[C@]3(C)C(N)=O)C(F)(F)F)cc2cccnc12 [Example 28]
19,> 200 nM,C[C@]1(CNCC2CC2)COc2c1cc([C@@](O)(CNC(=O)c1ccc(OC(F)F)c(OCC3CC3)c1)C(F)(F)F)nc2-c1ccc(F)cc1 [Example 33]
20,> 200 nM,C[C@]1(CNCC2CC2)COc2c1cc([C@@](O)(CNC(=O)c1ccc3c(c1)OCCN3)C(F)(F)F)nc2-c1ccc(F)cc1 [Example 38]
21,> 200 nM,C[C@]1(CNCC2CC2)COc2c1cc([C@@](O)(CNC(=O)c1ccc3[nH]c(=O)[nH]c3c1)C(F)(F)F)nc2-c1ccc(F)cc1 [Example 40]

row,EC50,Compound
1,> 200 nM,COc1cc(C(=O)NC[C@](O)(c2cc3c(c(-c4ccc(F)cc4)n2)OC[C@]3(C)CNCC2CC2)C(F)(F)F)ccc1OC(F)F [Example 41]
2,> 200 nM,C[C@]1(CNCC2CC2)COc2c1cc([C@@](O)(CNC(=O)c1ccc(OC(F)F)c(O)c1)C(F)(F)F)nc2-c1ccc(F)cc1 [Example 42]
3,> 200 nM,COc1cc(C(=O)NC[C@](O)(c2cc3c(c(-c4ccc(F)cc4)n2)OC[C@]3(C)C(=O)NC2CCCC2)C(F)(F)F)cc2cccnc12 [Example 47]
4,< 200 nM,COc1cc(C(=O)NC[C@](O)(c2cc3c(c(-c4ccc(F)cc4)n2)OC[C@]3(C)C(=O)NCC(F)(F)F)C(F)(F)F)cc2cccnc12 [Example 48]
5,< 200 nM,COc1cc(C(=O)NC[C@](O)(c2cc3c(c(-c4ccc(F)cc4)n2)OC[C@]3(C)C(=O)NCC2CC2)C(F)(F)F)cc2cccnc12 [Example 50]
6,> 200 nM,COc1cc(C(=O)NC[C@](O)(c2cc3c(c(-c4ccc(F)cc4)n2)OC[C@]3(C)C(=O)NC2(C(F)(F)F)CC2)C(F)(F)F)cc2cccnc12 [Example 51]
7,< 200 nM,COc1cc(C(=O)NC[C@](O)(c2cc3c(c(-c4ccc(F)cc4)n2)OC[C@]3(C)C(=O)NC23CC(C2)C3)C(F)(F)F)cc2cccnc12 [Example 54]
8,< 200 nM,COc1cc(C(=O)NC[C@](O)(c2cc3c(c(-c4ccc(F)cc4)n2)OC[C@]3(C)C(=O)NC23CC(F)(C2)C3)C(F)(F)F)cc2cccnc12 [Example 55]
9,< 200 nM,COc1cc(C(=O)NC[C@](O)(c2cc3c(c(-c4ccc(F)cc4)n2)OC[C@]3(C)C(=O)NC2(C)COC2)C(F)(F)F)cc2cccnc12 [Example 57]
10,> 200 nM,COc1cc(C(=O)NC[C@](O)(c2cc3c(c(-c4ccc(F)cc4)n2)OC[C@]3(C)C(=O)NC2(C)CC(F)(F)C2)C(F)(F)F)cc2cccnc12 [Example 58]
11,< 200 nM,C[C@]1(C(N)=O)COc2c1cc([C@@](O)(CNC(=O)c1cc(OC(F)F)c3ncccc3c1)C(F)(F)F)nc2-c1ccc(F)cc1 [Example 59]
12,< 200 nM,COc1cc(C(=O)NC[C@](O)(c2cc3c(c(-c4ccc(F)cc4)n2)OC[C@]3(C)C(N)=O)C(F)(F)F)cc2c1NC(=O)CC2 [Example 60]
13,< 200 nM,C[C@]1(C(N)=O)COc2c1cc([C@@](O)(CNC(=O)c1cc(F)c3ncccc3c1)C(F)(F)F)nc2-c1ccc(F)cc1 [Example 63]
14,< 200 nM,C[C@]1(C(N)=O)COc2c1cc([C@@](O)(CNC(=O)c1cc(C(F)(F)F)c3ncccc3c1)C(F)(F)F)nc2-c1ccc(F)cc1 [Example 64]
15,> 200 nM,C[C@]1(C(N)=O)COc2c1cc([C@@](O)(CNC(=O)c1ccc3c(c1)OC(F)(F)O3)C(F)(F)F)nc2-c1ccc(F)cc1 [Example 66]
16,< 200 nM,COc1cc(C(=O)NC[C@](O)(c2cc3c(c(-c4ccc(F)cc4)n2)OC[C@]3(C)C(N)=O)C(F)(F)F)ccc1OC(F)F [Example 67]
17,< 200 nM,COc1cc(C(=O)NC[C@](O)(c2cc3c(c(-c4ccc(F)cc4)n2)OC[C@]3(C)C(N)=O)C(F)(F)F)ccc1OCCF [Example 68]
18,< 200 nM,C[C@]1(C(N)=O)COc2c1cc([C@@](O)(CNC(=O)c1ccc(OC(F)F)c(OC(F)F)c1)C(F)(F)F)nc2-c1ccc(F)cc1 [Example 70]
19,< 200 nM,C[C@]1(C(N)=O)COc2c1cc([C@@](O)(CNC(=O)c1ccc(OC3CC3)cc1)C(F)(F)F)nc2-c1ccc(F)cc1 [Example 71]
20,< 200 nM,C[C@]1(C(N)=O)COc2c1cc([C@@](O)(CNC(=O)c1ccc(OC3CC3)c(F)c1)C(F)(F)F)nc2-c1ccc(F)cc1 [Example 72]
21,< 200 nM,COc1cc(C(=O)NC[C@](O)(c2cc3c(c(-c4ccc(F)cc4)n2)OC[C@]3(C)C(=O)NCC2(C)CC2)C(F)(F)F)cc2cccnc12 [Example 76]
